Results as given in patent US20080045504A1, “Benzonitrile Derivatives to Treat Musculoskeletal Frailty” (PFIZER PRODUCTS INC., priority 2004, published 2008).

Biological target: T1, recombinant human androgen receptor (hAR) (Homo sapiens, UniProt P10275)
T1 construct: made in house; host or cells: baculovirus/Sf9 insect cells (crude extract)
T1 sequence (P10275 1-920): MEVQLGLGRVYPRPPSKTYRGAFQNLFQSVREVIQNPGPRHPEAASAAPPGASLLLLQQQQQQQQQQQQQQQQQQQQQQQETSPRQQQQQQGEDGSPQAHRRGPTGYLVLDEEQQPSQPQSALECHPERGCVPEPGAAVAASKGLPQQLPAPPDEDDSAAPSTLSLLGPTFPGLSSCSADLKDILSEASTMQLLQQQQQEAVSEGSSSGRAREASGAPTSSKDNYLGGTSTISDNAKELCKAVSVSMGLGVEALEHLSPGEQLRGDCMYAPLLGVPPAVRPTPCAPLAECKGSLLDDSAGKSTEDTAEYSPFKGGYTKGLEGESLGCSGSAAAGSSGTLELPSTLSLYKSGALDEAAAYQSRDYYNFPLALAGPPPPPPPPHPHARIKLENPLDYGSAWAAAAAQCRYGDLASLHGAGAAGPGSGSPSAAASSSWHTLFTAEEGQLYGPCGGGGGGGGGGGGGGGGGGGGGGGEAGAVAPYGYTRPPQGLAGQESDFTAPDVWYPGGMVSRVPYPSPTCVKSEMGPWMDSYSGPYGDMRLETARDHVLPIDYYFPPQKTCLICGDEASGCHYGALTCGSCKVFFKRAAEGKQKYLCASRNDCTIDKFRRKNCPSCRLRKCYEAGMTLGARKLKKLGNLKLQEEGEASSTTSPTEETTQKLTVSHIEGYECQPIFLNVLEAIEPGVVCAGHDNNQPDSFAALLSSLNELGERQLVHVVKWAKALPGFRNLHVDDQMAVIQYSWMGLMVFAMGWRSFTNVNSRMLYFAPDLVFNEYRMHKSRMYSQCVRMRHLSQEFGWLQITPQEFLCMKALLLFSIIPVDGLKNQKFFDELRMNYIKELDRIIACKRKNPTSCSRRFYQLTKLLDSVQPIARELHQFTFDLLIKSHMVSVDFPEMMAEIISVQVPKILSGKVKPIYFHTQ
Test: Human androgen receptor binding analysis (3H-DHT competitive binding)
Procedure: The following is a brief description of the assay that determines the affinity of a compound for the recombinant human androgen receptor (hAR). Competitive binding analysis is performed on baculovirus/Sf9 generated hAR extracts in the presence or absence of differing concentrations of drug and a fixed concentration of ^3H-dihydrotestosterone (^3H-DHT) as tracer. This binding assay method is a modification of a protocol previously described (Chang, et. al. J. Steroid Biochem. 20(1):11-17 1984). Briefly, progressively decreasing concentrations of compounds are incubated in the presence of hAR extract (Chang et al. P.N.A.S. Vol. 89, pp. 5546-5950, 1992), hydroxylapatite and 1 nM ^3H-DHT for one hour at 4° C. Subsequently, the binding reactions are washed three times to completely remove excess unbound ^3H-DHT. hAR bound ^3H-DHT levels are determined in the presence of compounds (=competitive binding) and compared to levels bound when no competitor is present (=maximum binding). Compound binding affinity to the hAR is expressed as the concentration of compound at which one half of the maximum binding is inhibited (the IC50).

CC[C@H]1CCCCN1c1ccc(C#N)c(C(F)(F)F)c1 [Example 1, 4-(2-(S)-Ethyl-piperidin-1-yl)-2-trifluoromethyl-benzonitrile]
IC50: 5.21 nM
